From ChEMBL document CHEMBL5260810, “Inhibition of bromodomain-containing protein 9 for the prevention of epigenetically-defined drug resistance” (Bioorg Med Chem Lett, 2017)

Tested on: not listed separately
Experiment: Cytotoxicity against human NCI-H2722 cells measured after 8 days
Format: functional, cell-based
Details: NCI-H2722, 192 h

SMILES | IC50
C/C=C/Cn1cc(-c2cc(OC)c(C(=O)N3CCOCC3)cc2OC)c2cc(C)[nH]c2c1=O | 2000 nM

Tested on: HCC4017
Experiment: Cytotoxicity against human HCC4017 cells measured after 8 days
Format: functional, cell-based
Details: HCC4017, 192 h

SMILES | IC50
C/C=C/Cn1cc(-c2cc(OC)c(C(=O)N3CCOCC3)cc2OC)c2cc(C)[nH]c2c1=O | 2000 nM

Target: Serine/threonine-protein kinase 24 (Homo sapiens) (UniProt Q9Y6E0)
Sequence (Q9Y6E0 whole entry, looked up): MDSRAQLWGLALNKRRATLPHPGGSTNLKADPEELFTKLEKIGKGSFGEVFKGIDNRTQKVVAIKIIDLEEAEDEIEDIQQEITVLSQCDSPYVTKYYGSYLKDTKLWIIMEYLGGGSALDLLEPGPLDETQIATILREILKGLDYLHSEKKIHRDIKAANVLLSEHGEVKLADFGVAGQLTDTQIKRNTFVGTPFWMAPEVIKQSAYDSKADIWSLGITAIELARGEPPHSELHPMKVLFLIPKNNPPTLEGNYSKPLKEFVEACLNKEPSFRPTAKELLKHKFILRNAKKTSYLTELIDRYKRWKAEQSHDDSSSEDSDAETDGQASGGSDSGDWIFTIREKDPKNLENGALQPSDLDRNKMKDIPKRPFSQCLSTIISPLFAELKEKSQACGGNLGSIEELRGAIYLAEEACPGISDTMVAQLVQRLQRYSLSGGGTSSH
Experiment: Inhibition of MST3 (unknown origin) at 1 uM relative to control
Details: not given

SMILES | inhibition
C/C=C/Cn1cc(-c2cc(OC)c(C(=O)N3CCOCC3)cc2OC)c2cc(C)[nH]c2c1=O | 7%

Tested on: JeKo-1
Experiment: Cytotoxicity against human JeKo-1 cells measured after 8 days
Format: functional, cell-based
Details: JeKo-1, 192 h

SMILES | IC50
C/C=C/Cn1cc(-c2cc(OC)c(C(=O)N3CCOCC3)cc2OC)c2cc(C)[nH]c2c1=O | 2000 nM

Tested on: NCI-H1581
Experiment: Cytotoxicity against human NCI-H1581 cells measured after 8 days
Format: functional, cell-based
Details: NCI-H1581, 192 h

SMILES | IC50
C/C=C/Cn1cc(-c2cc(OC)c(C(=O)N3CCOCC3)cc2OC)c2cc(C)[nH]c2c1=O | 2000 nM

Target: Aurora kinase B (Homo sapiens) (UniProt Q96GD4)
Sequence (Q96GD4 whole entry): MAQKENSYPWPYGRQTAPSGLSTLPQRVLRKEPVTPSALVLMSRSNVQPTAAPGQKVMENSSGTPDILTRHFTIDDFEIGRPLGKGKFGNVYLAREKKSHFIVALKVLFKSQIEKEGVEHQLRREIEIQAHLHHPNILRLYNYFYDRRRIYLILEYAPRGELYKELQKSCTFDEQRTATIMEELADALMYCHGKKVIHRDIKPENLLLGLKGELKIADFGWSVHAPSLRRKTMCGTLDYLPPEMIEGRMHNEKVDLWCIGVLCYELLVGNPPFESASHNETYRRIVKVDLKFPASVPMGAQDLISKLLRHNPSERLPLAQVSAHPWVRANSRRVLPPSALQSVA
Experiment: Inhibition of Aurora B (unknown origin) at 1 uM relative to control
Details: not given

SMILES | inhibition
C/C=C/Cn1cc(-c2cc(OC)c(C(=O)N3CCOCC3)cc2OC)c2cc(C)[nH]c2c1=O | 4.5%

Tested on: EB2
Experiment: Cytotoxicity against human EB2 cells measured after 8 days
Format: functional, cell-based
Details: EB2, 192 h

SMILES | IC50
C/C=C/Cn1cc(-c2cc(OC)c(C(=O)N3CCOCC3)cc2OC)c2cc(C)[nH]c2c1=O | 2000 nM

Tested on: GP5d
Experiment: Cytotoxicity against human GP5d cells measured after 8 days
Format: functional, cell-based
Details: 192 h

SMILES | IC50
C/C=C/Cn1cc(-c2cc(OC)c(C(=O)N3CCOCC3)cc2OC)c2cc(C)[nH]c2c1=O | 2000 nM

Tested on: HPAC
Experiment: Cytotoxicity against human HPAC cells measured after 8 days
Format: functional, cell-based
Details: 192 h

SMILES | IC50
C/C=C/Cn1cc(-c2cc(OC)c(C(=O)N3CCOCC3)cc2OC)c2cc(C)[nH]c2c1=O | 2000 nM

Target: Proto-oncogene tyrosine-protein kinase Src (Homo sapiens) (UniProt P12931)
Sequence (P12931 2-536 limits assumed): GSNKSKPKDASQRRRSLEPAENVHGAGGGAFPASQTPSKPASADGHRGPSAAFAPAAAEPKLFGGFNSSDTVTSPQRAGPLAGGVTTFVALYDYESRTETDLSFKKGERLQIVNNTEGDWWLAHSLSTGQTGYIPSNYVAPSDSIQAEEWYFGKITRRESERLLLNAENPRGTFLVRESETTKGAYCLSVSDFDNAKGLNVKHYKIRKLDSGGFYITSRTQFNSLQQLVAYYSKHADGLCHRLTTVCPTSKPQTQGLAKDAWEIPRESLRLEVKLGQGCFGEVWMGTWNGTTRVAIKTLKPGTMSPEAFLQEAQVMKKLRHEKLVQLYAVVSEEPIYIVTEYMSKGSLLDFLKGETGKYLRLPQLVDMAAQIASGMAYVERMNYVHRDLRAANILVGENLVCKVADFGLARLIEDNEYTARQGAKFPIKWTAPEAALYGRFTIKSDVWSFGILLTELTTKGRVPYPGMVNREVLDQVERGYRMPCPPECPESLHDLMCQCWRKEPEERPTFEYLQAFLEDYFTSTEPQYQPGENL
Experiment: Inhibition of Src (unknown origin) at 1 uM relative to control
Details: not given

SMILES | inhibition
C/C=C/Cn1cc(-c2cc(OC)c(C(=O)N3CCOCC3)cc2OC)c2cc(C)[nH]c2c1=O | 3.5%

Tested on: NCI-H2228
Experiment: Cytotoxicity against human NCI-H2228 cells measured after 8 days
Format: functional, cell-based
Details: NCI-H2228, 192 h

SMILES | IC50
C/C=C/Cn1cc(-c2cc(OC)c(C(=O)N3CCOCC3)cc2OC)c2cc(C)[nH]c2c1=O | 2000 nM

Tested on: SW-620
Experiment: Cytotoxicity against human SW620 cells measured after 8 days
Format: functional, cell-based
Details: SW-620, 192 h

SMILES | IC50
C/C=C/Cn1cc(-c2cc(OC)c(C(=O)N3CCOCC3)cc2OC)c2cc(C)[nH]c2c1=O | 2000 nM

Target: Cyclin-dependent kinase 2/cyclin A (Homo sapiens) (UniProt P24941+P20248+P78396)
Experiment: Inhibition of CDK2/cyclin A (unknown origin) at 1 uM relative to control
Format: protein-complex assay
Details: not given

SMILES | inhibition
C/C=C/Cn1cc(-c2cc(OC)c(C(=O)N3CCOCC3)cc2OC)c2cc(C)[nH]c2c1=O | 0%

Tested on: DB
Experiment: Cytotoxicity against human DB cells measured after 8 days
Format: functional, cell-based
Details: 192 h

SMILES | IC50
C/C=C/Cn1cc(-c2cc(OC)c(C(=O)N3CCOCC3)cc2OC)c2cc(C)[nH]c2c1=O | 2000 nM

Tested on: OCI-LY19
Experiment: Cytotoxicity against human OCILY19 cells measured after 8 days
Format: functional, cell-based
Details: OCI-LY19, 192 h

SMILES | IC50
C/C=C/Cn1cc(-c2cc(OC)c(C(=O)N3CCOCC3)cc2OC)c2cc(C)[nH]c2c1=O | 2000 nM

Tested on: PC-3
Experiment: Cytotoxicity against human PC-3 cells measured after 8 days
Format: functional, cell-based
Details: PC-3, 192 h

SMILES | IC50
C/C=C/Cn1cc(-c2cc(OC)c(C(=O)N3CCOCC3)cc2OC)c2cc(C)[nH]c2c1=O | 2000 nM

Tested on: not listed separately
Experiment: Cytotoxicity against human HCA7 cells measured after 8 days
Format: functional, cell-based
Details: HCA-7, 192 h

SMILES | IC50
C/C=C/Cn1cc(-c2cc(OC)c(C(=O)N3CCOCC3)cc2OC)c2cc(C)[nH]c2c1=O | 2000 nM

Target: Dual specificity protein kinase CLK2 (Homo sapiens) (UniProt P49760)
Sequence (P49760 whole entry, looked up): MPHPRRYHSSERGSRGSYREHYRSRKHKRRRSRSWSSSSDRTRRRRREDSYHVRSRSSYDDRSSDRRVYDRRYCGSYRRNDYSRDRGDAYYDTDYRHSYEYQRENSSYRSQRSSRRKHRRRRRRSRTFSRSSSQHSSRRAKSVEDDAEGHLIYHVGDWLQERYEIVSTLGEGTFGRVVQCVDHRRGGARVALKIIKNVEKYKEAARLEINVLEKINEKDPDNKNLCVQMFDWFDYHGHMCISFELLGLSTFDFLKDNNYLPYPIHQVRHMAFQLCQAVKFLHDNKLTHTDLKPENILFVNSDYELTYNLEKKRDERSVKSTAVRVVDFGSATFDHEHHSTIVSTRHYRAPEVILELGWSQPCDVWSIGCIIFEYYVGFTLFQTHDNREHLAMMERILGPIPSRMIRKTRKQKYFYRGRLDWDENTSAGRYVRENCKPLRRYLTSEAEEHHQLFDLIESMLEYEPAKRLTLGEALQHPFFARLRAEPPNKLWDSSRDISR
Experiment: Inhibition of CLK2 (unknown origin) at 1 uM relative to control
Details: not given

SMILES | inhibition
C/C=C/Cn1cc(-c2cc(OC)c(C(=O)N3CCOCC3)cc2OC)c2cc(C)[nH]c2c1=O | 7.5%

Tested on: NCI-H1651
Experiment: Cytotoxicity against human NCI-H1651 cells measured after 8 days
Format: functional, cell-based
Details: NCI-H1651, 192 h

SMILES | IC50
C/C=C/Cn1cc(-c2cc(OC)c(C(=O)N3CCOCC3)cc2OC)c2cc(C)[nH]c2c1=O | 2000 nM

Tested on: not listed separately
Experiment: Cytotoxicity against human NCI-H1339 cells measured after 8 days
Format: functional, cell-based
Details: NCI-H1339, 192 h

SMILES | IC50
C/C=C/Cn1cc(-c2cc(OC)c(C(=O)N3CCOCC3)cc2OC)c2cc(C)[nH]c2c1=O | 2000 nM

Target: T1, Myotonin-protein kinase (Homo sapiens) (UniProt Q09013)
T1 sequence (whole entry): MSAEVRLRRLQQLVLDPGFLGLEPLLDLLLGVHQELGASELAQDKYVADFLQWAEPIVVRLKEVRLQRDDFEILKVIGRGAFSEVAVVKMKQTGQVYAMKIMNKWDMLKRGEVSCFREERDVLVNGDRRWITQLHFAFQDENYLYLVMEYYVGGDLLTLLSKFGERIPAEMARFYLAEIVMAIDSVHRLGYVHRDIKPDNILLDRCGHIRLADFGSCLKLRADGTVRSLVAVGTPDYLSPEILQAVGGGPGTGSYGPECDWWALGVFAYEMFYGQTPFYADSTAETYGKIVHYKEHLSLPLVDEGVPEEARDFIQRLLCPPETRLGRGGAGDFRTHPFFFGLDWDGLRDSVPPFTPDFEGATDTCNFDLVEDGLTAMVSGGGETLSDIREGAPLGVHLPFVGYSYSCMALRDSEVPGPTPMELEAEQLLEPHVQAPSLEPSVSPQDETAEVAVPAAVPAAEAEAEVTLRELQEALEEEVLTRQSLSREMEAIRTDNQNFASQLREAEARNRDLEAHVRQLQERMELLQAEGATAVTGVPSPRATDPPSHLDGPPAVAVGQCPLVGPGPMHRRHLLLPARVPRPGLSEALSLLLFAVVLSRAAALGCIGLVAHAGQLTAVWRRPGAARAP
Experiment: Inhibition of DMPK (unknown origin) at 1 uM relative to control
Details: not given

SMILES | inhibition
C/C=C/Cn1cc(-c2cc(OC)c(C(=O)N3CCOCC3)cc2OC)c2cc(C)[nH]c2c1=O | -4%

Tested on: UACC-62
Experiment: Cytotoxicity against human UACC-62 cells measured after 8 days
Format: functional, cell-based
Details: UACC-62, 192 h

SMILES | IC50
C/C=C/Cn1cc(-c2cc(OC)c(C(=O)N3CCOCC3)cc2OC)c2cc(C)[nH]c2c1=O | 2000 nM

Tested on: NCI-H727
Experiment: Cytotoxicity against human NCI-H727 cells measured after 8 days
Format: functional, cell-based
Details: NCI-H727, 192 h

SMILES | IC50
C/C=C/Cn1cc(-c2cc(OC)c(C(=O)N3CCOCC3)cc2OC)c2cc(C)[nH]c2c1=O | 2000 nM

Tested on: not listed separately
Experiment: Cytotoxicity against human SW527 cells measured after 8 days
Format: functional, cell-based
Details: SW527, 192 h

SMILES | IC50
C/C=C/Cn1cc(-c2cc(OC)c(C(=O)N3CCOCC3)cc2OC)c2cc(C)[nH]c2c1=O | 2000 nM

Target: Protein polybromo-1 (Homo sapiens, UniProt Q86U86)
Sequence (Q86U86 whole entry, the tested form may be a part): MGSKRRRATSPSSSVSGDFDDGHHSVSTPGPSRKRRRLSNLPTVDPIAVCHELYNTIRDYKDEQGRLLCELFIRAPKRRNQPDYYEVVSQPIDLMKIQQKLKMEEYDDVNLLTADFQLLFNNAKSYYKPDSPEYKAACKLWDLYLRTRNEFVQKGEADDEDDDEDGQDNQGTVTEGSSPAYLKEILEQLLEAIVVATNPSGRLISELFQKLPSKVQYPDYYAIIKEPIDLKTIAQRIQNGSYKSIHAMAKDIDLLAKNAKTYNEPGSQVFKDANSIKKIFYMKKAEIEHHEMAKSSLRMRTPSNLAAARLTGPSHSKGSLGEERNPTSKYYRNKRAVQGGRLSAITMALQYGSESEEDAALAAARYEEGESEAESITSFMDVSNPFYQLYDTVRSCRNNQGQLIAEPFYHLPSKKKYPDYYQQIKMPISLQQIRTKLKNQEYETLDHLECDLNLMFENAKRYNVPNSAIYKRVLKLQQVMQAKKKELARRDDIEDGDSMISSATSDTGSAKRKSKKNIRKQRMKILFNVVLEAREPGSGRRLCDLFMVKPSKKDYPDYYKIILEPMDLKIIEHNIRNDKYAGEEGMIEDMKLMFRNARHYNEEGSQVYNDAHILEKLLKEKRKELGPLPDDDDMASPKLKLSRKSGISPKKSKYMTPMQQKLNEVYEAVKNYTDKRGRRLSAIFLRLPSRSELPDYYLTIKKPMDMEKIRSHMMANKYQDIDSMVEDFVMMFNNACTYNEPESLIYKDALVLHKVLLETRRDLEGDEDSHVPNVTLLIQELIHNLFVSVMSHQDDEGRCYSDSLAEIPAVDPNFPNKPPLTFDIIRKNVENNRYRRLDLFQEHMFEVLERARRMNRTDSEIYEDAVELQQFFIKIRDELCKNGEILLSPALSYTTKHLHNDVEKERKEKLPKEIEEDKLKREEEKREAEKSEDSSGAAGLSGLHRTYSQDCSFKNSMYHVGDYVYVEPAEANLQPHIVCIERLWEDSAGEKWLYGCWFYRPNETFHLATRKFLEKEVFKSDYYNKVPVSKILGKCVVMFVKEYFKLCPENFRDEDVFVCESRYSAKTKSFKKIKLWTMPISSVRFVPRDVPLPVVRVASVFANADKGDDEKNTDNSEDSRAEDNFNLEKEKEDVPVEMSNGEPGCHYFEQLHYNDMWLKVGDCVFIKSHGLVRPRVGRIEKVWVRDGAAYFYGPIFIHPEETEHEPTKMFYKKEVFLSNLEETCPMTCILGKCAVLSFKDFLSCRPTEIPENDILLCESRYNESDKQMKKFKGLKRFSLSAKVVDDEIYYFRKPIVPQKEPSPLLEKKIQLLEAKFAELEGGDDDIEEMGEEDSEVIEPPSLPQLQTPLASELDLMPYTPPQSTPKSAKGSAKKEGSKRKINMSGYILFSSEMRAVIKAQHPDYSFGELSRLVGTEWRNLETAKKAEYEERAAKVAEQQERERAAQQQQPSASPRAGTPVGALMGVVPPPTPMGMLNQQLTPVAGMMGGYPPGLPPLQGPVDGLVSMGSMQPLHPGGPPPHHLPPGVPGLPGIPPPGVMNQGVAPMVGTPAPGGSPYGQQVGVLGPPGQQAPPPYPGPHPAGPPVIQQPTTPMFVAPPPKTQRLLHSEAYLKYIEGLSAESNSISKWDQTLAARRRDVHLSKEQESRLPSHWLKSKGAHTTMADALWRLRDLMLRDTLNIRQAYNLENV
Experiment: Binding affinity to human partial length PBRM1 bromodomain 1 (S178 to E291 residues) expressed in bacterial expression system by BROMOscan assay
Details: not given

SMILES | Kd
C/C=C/Cn1cc(-c2cc(OC)c(C(=O)N3CCOCC3)cc2OC)c2cc(C)[nH]c2c1=O | > 10000 nM

Target: T2, Endothelin-1 receptor (Homo sapiens) (UniProt P25101)
T2 sequence (whole entry): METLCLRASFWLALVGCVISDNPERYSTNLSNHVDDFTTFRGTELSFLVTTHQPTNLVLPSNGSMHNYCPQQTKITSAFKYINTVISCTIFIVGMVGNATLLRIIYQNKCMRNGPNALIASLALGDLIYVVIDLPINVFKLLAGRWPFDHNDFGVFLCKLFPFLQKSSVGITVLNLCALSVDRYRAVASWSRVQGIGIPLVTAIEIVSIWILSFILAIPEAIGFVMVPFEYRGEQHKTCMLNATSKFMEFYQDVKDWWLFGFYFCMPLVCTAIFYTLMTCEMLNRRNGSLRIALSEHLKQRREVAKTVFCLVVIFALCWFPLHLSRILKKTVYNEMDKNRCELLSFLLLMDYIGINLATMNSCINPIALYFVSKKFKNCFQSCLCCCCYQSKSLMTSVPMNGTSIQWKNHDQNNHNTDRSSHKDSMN
Experiment: Displacement of [125I]-endothelin-1 from human recombinant ETA receptor at 10 uM after 120 mins by scintillation counting analysis relative to control
Details: not given

SMILES | Activity
C/C=C/Cn1cc(-c2cc(OC)c(C(=O)N3CCOCC3)cc2OC)c2cc(C)[nH]c2c1=O | 16%

Tested on: LXF-289 cell line
Experiment: Cytotoxicity against human LXF-289 cell line measured after 8 days
Format: functional, cell-based
Details: LXF-289, 192 h

SMILES | IC50
C/C=C/Cn1cc(-c2cc(OC)c(C(=O)N3CCOCC3)cc2OC)c2cc(C)[nH]c2c1=O | 2000 nM

Tested on: HCC1419
Experiment: Cytotoxicity against human HCC1419 cells measured after 8 days
Format: functional, cell-based
Details: HCC1419, 192 h

SMILES | IC50
C/C=C/Cn1cc(-c2cc(OC)c(C(=O)N3CCOCC3)cc2OC)c2cc(C)[nH]c2c1=O | 2000 nM

Tested on: NCI-H1975
Experiment: Cytotoxicity against human NCI-H1975 cells measured after 8 days
Format: functional, cell-based
Details: NCI-H1975, 192 h

SMILES | IC50
C/C=C/Cn1cc(-c2cc(OC)c(C(=O)N3CCOCC3)cc2OC)c2cc(C)[nH]c2c1=O | 2000 nM

Tested on: KP-4
Experiment: Cytotoxicity against human KP-4 cells measured after 8 days
Format: functional, cell-based
Details: KP-4, 192 h

SMILES | IC50
C/C=C/Cn1cc(-c2cc(OC)c(C(=O)N3CCOCC3)cc2OC)c2cc(C)[nH]c2c1=O | 2000 nM

Tested on: KNS-62
Experiment: Cytotoxicity against human KNS-62 cells measured after 8 days
Format: functional, cell-based
Details: KNS-62, 192 h

SMILES | IC50
C/C=C/Cn1cc(-c2cc(OC)c(C(=O)N3CCOCC3)cc2OC)c2cc(C)[nH]c2c1=O | 2000 nM

Tested on: NCI-H358
Experiment: Cytotoxicity against human NCI-H358 cells measured after 8 days
Format: functional, cell-based
Details: NCI-H358, 192 h

SMILES | IC50
C/C=C/Cn1cc(-c2cc(OC)c(C(=O)N3CCOCC3)cc2OC)c2cc(C)[nH]c2c1=O | 2000 nM

Target: Sodium-dependent dopamine transporter (Homo sapiens) (UniProt Q01959)
Sequence (Q01959 whole entry): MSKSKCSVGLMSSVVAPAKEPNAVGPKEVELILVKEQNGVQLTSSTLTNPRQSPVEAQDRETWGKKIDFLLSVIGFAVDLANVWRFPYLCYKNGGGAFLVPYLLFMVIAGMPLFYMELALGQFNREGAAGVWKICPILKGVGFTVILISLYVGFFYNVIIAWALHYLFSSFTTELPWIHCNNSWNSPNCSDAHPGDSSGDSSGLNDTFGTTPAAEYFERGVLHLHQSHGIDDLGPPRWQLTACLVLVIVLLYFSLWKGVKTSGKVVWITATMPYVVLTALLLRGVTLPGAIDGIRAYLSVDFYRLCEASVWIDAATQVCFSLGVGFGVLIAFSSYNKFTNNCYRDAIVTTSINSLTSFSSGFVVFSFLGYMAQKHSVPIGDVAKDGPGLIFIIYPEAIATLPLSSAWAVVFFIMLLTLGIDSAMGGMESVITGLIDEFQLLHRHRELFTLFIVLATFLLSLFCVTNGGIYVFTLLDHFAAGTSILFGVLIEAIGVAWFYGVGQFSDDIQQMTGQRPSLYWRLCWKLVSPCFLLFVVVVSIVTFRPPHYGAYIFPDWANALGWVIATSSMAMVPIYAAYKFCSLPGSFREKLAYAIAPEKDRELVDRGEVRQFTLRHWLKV
Experiment: Displacement of […] from recombinant human Dopamine transporter at 10 uM after 120 mins by scintillation counting analysis relative to control
Details: not given

SMILES | Activity
C/C=C/Cn1cc(-c2cc(OC)c(C(=O)N3CCOCC3)cc2OC)c2cc(C)[nH]c2c1=O | 11%

Tested on: HOP-62
Experiment: Cytotoxicity against human HOP-62 cells measured after 8 days
Format: functional, cell-based
Details: HOP-62, 192 h

SMILES | IC50
C/C=C/Cn1cc(-c2cc(OC)c(C(=O)N3CCOCC3)cc2OC)c2cc(C)[nH]c2c1=O | 2000 nM
